Assay [1] deals with Beet Armyworm (Spodoptera exigua) ("BAW"), second instar larvae. The assay is described as follows: Bioassay on beet armyworm (BAW), 128-well diet tray assay. The note with it: for pest or weed control at 50 µg/cm2: Spodoptera exigua; for BAW rating: Table ABC, species BAW, C = not tested, D = no activity noticed. Format: in vivo. Put shortly: (§1)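 Second-instar larvae on diet in 128-well trays, covered and held at 25° C, 14:10 light-dark, for five to seven days. Percent mortality scored per well and averaged over eight wells; activity reported as a rating category.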

For assay [2], the system named is Cabbage Looper (Trichoplusia ni) ("CL"), second instar larvae. Nature of the assay: Bioassay on cabbage looper (CL), 128-well diet tray assay. The note with it: for pest or weed control at 50 µg/cm2: Trichoplusia ni; for CL rating: Table ABC, species CL, C = not tested, D = no activity noticed. The format is in vivo. Put shortly:
as §1

The mark [3] stands for this setting: read-out: BAW (Biological Results, rating).
The mark [4] stands for this setting: read-out: CL (Biological Results, rating).

Each structure is given as a SMILES string. Where two headings read alike, the source gives them in different places.

Take `COc1ccc(C(C)C)c(N2C(=O)CS/C2=N\C(=O)Nc2c(C)cc(-c3ncn(-c4ccc(OC(F)(F)F)cc4)n3)cc2C)c1` [Compound J98, (Z)-1-(2,6-Dimethyl-4-(1-(4-(trifluoromethoxy)phenyl)-1H-1,2,4-triazol-3-yl)phenyl)-3-(3-(2-isopropyl-5-methoxyphenyl)-4-oxothiazolidin-2-ylidene)urea]: the pest or weed control at 50 µg/cm2 in assay [1] (setting [3]) and in assay [2] (setting [4]) was 50 to 100% throughout.

Consider `Cc1cccc(N2C(=O)CS/C2=N\C(=O)Nc2ccc(-c3ncn(-c4ccc(S(F)(F)(F)(F)F)cc4)n3)cc2F)c1COCC(F)(F)F` [Compound J567], for which, in assay [1], the BAW rating entry is recorded as “A (50-100)”. In addition, the CL rating result in assay [2] is “A (50-100)”.

Regarding `Cc1ccc(COCC(F)F)c(N2C(=O)CS/C2=N\C(=O)Nc2ccc(-c3ncn(-c4ccc(C(F)(F)F)cn4)n3)cc2F)c1` [Compound J400], the BAW rating entry in assay [1] is reported as “A (50-100)”. For the same molecule, the CL rating result in assay [2] is on record as “A (50-100)”.

Consider `Cc1ccc(C(C)C)c(N2C(=O)CS/C2=N\C(=O)Nc2ccc(-c3ncn(-c4ccc(OC(F)(F)C(F)(F)F)cc4)n3)c(C)c2)c1` [Compound J2], for which the pest or weed control at 50 µg/cm2 in assay [1] (setting [3]) and in assay [2] (setting [4]) was 50 to 100% each time.

With `CCCc1ccc(N(C)C)cc1N1C(=O)CS/C1=N\C(=O)Nc1ccc(-c2cn(-c3ccc(S(F)(F)(F)(F)F)cc3)cn2)cc1F` [Compound J602, (Z)-1-(3-(5-(Dimethylamino)-2-propylphenyl)-4-oxothiazolidin-2-ylidene)-3-(2-fluoro-4-(1-(4-(pentafluoro-λ^6-sulfaneyl)phenyl)-1H-imidazol-4-yl)phenyl)urea], the pest or weed control at 50 µg/cm2 in assay [1] (read-out: BAW rating) and in assay [2] (read-out: CL rating) was 50 to 100% each time.

Regarding `Cc1ccc(COCC(F)(F)F)c(N2C(=O)CS/C2=N\C(=O)Nc2ccc(-c3ncn(-c4ccc(SC(F)(F)F)cc4)n3)cc2Cl)c1` [Compound J226, (Z)-1-(2-Chloro-4-(1-(4-((trifluoromethyl)thio)phenyl)-1H-1,2,4-triazol-3-yl)phenyl)-3-(3-(5-methyl-2-((2,2,2-trifluoroethoxy)methyl)phenyl)-4-oxothiazolidin-2-ylidene)urea], the pest or weed control at 50 µg/cm2 in assay [1] (setting [3]) and in assay [2] (setting [4]) was 50 to 100% each time.

As to `Cc1ccc(COCC(F)(F)F)c(N2C(=O)CS/C2=N\C(=O)Nc2ccc(-c3cn(-c4ccc(S(F)(F)(F)(F)F)cc4)cn3)cc2F)c1` [Compound J598, (Z)-1-(2-Fluoro-4-(1-(4-(pentafluoro-λ^6-sulfaneyl)phenyl)-1H-imidazol-4-yl)phenyl)-3-(3-(5-methyl-2-((2,2,2-trifluoroethoxy)methyl)phenyl)-4-oxothiazolidin-2-ylidene)urea], the pest or weed control at 50 µg/cm2 in assay [1] (read-out: BAW rating) and in assay [2] (read-out: CL rating) was 50 to 100% each time.

Regarding `Cc1ccc(COCC(F)(F)F)c(N2C(=O)CS/C2=N\C(=O)Nc2ccc(-c3ncn(-c4ccc(SC(F)(F)F)cc4)n3)cc2C)c1` [Compound J204, (Z)-1-(3-(5-Methyl-2-((2,2,2-trifluoroethoxy)methyl)phenyl)-4-oxothiazolidin-2-ylidene)-3-(2-methyl-4-(1-(4-((trifluoromethyl)thio)phenyl)-1H-1,2,4-triazol-3-yl)phenyl)urea], the pest or weed control at 50 µg/cm2 in assay [1] (setting [3]) and in assay [2] (setting [4]) was 50 to 100% each time.

As for `COc1ccc(C(C)C)c(N2C(=O)CS/C2=N\C(=O)Nc2ccc(-c3ncn(-c4ccc(OC(F)(F)F)cc4)n3)cc2OC)c1` [Compound J6, (Z)-1-(3-(2-Isopropyl-5-methoxyphenyl)-4-oxothiazolidin-2-ylidene)-3-(2-methoxy-4-(1-(4-(trifluoromethoxy)phenyl)-1H-1,2,4-triazol-3-yl)phenyl)urea], the pest or weed control at 50 µg/cm2 in assay [1] (setting [3]) and in assay [2] (setting [4]) was 50 to 100% each time.

As to `CCOCc1ccc(C)cc1N1C(=O)CS/C1=N\C(=O)Nc1ccc(-c2ncn(-c3cccc(C(F)(F)F)c3)n2)cc1F` [Compound J723], the BAW rating entry in assay [1] is on record as “A (50-100)”. Moreover, the CL rating entry in assay [2] was “A (50-100)”.

Regarding `CCCNc1ccc(C(C)C)c(N2C(=O)CS/C2=N\C(=O)Nc2ccc(-c3ncn(-c4ccc(OC(F)(F)F)cc4)n3)cc2CC)c1` [Compound J159, (Z)-1-(2-Ethyl-4-(1-(4-(trifluoromethoxy)phenyl)-1H-1,2,4-triazol-3-yl)phenyl)-3-(3-(2-isopropyl-5-(propylamino)phenyl)-4-oxothiazolidin-2-ylidene)urea], the pest or weed control at 50 µg/cm2 in assay [1] (setting [3]) and in assay [2] (setting [4]) was 50 to 100% in each case.

As for `COC(C)c1ccc(C)cc1N1C(=O)CS/C1=N\C(=O)Nc1ccc(-c2ncn(-c3ccc(OC(F)(F)F)cc3)n2)cc1F` (stereo not drawn) [Compound J49, (Z)-1-(2-Fluoro-4-(1-(4-(trifluoromethoxy)phenyl)-1H-1,2,4-triazol-3-yl)phenyl)-3-(3-(2-(1-methoxyethyl)-5-methylphenyl)-4-oxothiazolidin-2-ylidene)urea], the pest or weed control at 50 µg/cm2 in assay [1] (setting [3]) and in assay [2] (setting [4]) was 50 to 100% each time.

For the molecule `CCOCc1ccc(C)cc1N1C(=O)CS/C1=N\C(=O)Nc1ccc(-c2cn(-c3ccc(OC(F)(F)F)cc3)nn2)cc1` [Compound J493, (Z)-1-(3-(2-(Ethoxymethyl)-5-methylphenyl)-4-oxothiazolidin-2-ylidene)-3-(4-(1-(4-(trifluoromethoxy)phenyl)-1H-1,2,3-triazol-4-yl)phenyl)urea], the pest or weed control at 50 µg/cm2 in assay [1] (read-out: BAW rating) and in assay [2] (read-out: CL rating) was 50 to 100% throughout.

In the case of `CCOCc1ccc(C)cc1N1C(=O)CS/C1=N\C(=O)Nc1ccc(-c2ncn(-c3cc(C(F)(F)F)cc(C(F)(F)F)c3)n2)cc1C` [Compound J763, (Z)-1-(4-(1-(3,5-Bis(trifluoromethyl)phenyl)-1H-1,2,4-triazol-3-yl)-2-methylphenyl)-3-(3-(2-(ethoxymethyl)-5-methylphenyl)-4-oxothiazolidin-2-ylidene)urea], the pest or weed control at 50 µg/cm2 in assay [1] (read-out: BAW rating) and in assay [2] (read-out: CL rating) was 50 to 100% throughout.

Take `CCCOc1ccc(C)cc1N1C(=O)CS/C1=N\C(=O)Nc1ccc(-c2ncn(-c3ccc(S(F)(F)(F)(F)F)cc3)n2)cc1F` [Compound J541]: the pest or weed control at 50 µg/cm2 in assay [1] (read-out: BAW rating) and in assay [2] (read-out: CL rating) was 50 to 100% in each case.

Regarding `Cc1ccc(CC(C)C)c(N2C(=O)CS/C2=N\C(=O)Nc2ccc(-c3ncn(-c4ccc(OC(F)(F)F)cc4)n3)cc2F)c1` [Compound J47, (Z)-1-(2-Fluoro-4-(1-(4-(trifluoromethoxy)phenyl)-1H-1,2,4-triazol-3-yl)phenyl)-3-(3-(2-isobutyl-5-methylphenyl)-4-oxothiazolidin-2-ylidene)urea], the pest or weed control at 50 µg/cm2 in assay [1] (setting [3]) and in assay [2] (setting [4]) was 50 to 100% throughout.

As to `COC(C)c1ccc(C)cc1N1C(=O)CS/C1=N\C(=O)Nc1ccc(-c2nc(-c3ccc(OC(F)(F)F)cc3)no2)cc1F` (stereo not drawn) [Compound J434, (Z)-1-(2-Fluoro-4-(3-(4-(trifluoromethoxy)phenyl)-1,2,4-oxadiazol-5-yl)phenyl)-3-(3-(2-(1-methoxyethyl)-5-methylphenyl)-4-oxothiazolidin-2-ylidene)urea], the pest or weed control at 50 µg/cm2 in assay [1] (read-out: BAW rating) and in assay [2] (read-out: CL rating) was 50 to 100% each time.

Turning to `Cc1cc(-c2ncn(-c3ccc(C(F)(F)F)cc3)n2)ccc1NC(=O)/N=C1\SCC(=O)N1c1cccc(C)c1COCC(F)(F)F` [Compound J579], the BAW rating result in assay [1] is reported as “A (50-100)”. The CL rating entry in assay [2] is listed as “A (50-100)”.

As for `CCCc1ccc(N(C)C)cc1N1C(=O)CS/C1=N\C(=O)Nc1ccc(-c2ncn(-c3ccc(SC(F)(F)F)cc3)n2)cc1` [Compound J388, (Z)-1-(3-(5-(Dimethylamino)-2-propylphenyl)-4-oxothiazolidin-2-ylidene)-3-(4-(1-(4-((trifluoromethyl)thio)phenyl)-1H-1,2,4-triazol-3-yl)phenyl)urea], the pest or weed control at 50 µg/cm2 in assay [1] (read-out: BAW rating) and in assay [2] (read-out: CL rating) was 50 to 100% throughout.

Consider `COc1ccc(C(C)C)c(N2C(=O)CS/C2=N\C(=O)Nc2ccc(-c3ncn(-c4ccc(OC(F)(F)C(F)(F)F)cc4)n3)c(C)c2)c1` [Compound J7, (Z)-1-(3-(2-Isopropyl-5-methoxyphenyl)-4-oxothiazolidin-2-ylidene)-3-(3-methyl-4-(1-(4-(perfluoroethoxy)phenyl)-1H-1,2,4-triazol-3-yl)phenyl)urea], for which the pest or weed control at 50 µg/cm2 in assay [1] (setting [3]) and in assay [2] (setting [4]) was 50 to 100% throughout.

For `CC(C)c1cc(F)c(N(C)C)cc1N1C(=O)CS/C1=N\C(=O)Nc1ccc(-c2ncn(-c3ccc([S+]([O-])C(F)(F)F)cc3)n2)cc1F` (stereo not drawn) [Compound J384, (Z)-1-(3-(5-(Dimethylamino)-4-fluoro-2-isopropylphenyl)-4-oxothiazolidin-2-ylidene)-3-(2-fluoro-4-(1-(4-((trifluoromethyl)sulfinyl)phenyl)-1H-1,2,4-triazol-3-yl)phenyl)urea], the pest or weed control at 50 µg/cm2 in assay [1] (read-out: BAW rating) and in assay [2] (read-out: CL rating) was 50 to 100% throughout.

In the case of `Cc1ccc(C(F)(F)F)c(N2C(=O)CS/C2=N\C(=O)Nc2ccc(-c3ncn(-c4ccc(OC(F)(F)F)cc4)n3)cc2C#N)c1` [Compound J244, (Z)-1-(2-Cyano-4-(1-(4-(trifluoromethoxy)phenyl)-1H-1,2,4-triazol-3-yl)phenyl)-3-(3-(5-methyl-2-(trifluoromethyl)phenyl)-4-oxothiazolidin-2-ylidene)urea], the pest or weed control at 50 µg/cm2 in assay [1] (setting [3]) and in assay [2] (setting [4]) was 50 to 100% in each case.

Consider `CC(C)c1ccc(N(C)C)cc1N1C(=O)CS/C1=N\C(=O)Nc1ccc(-c2ncn(-c3ccc(S(F)(F)(F)(F)F)cc3)n2)cc1F` [Compound J450], for which the BAW rating entry in assay [1] is “A (50-100)”. For the same molecule, the CL rating result in assay [2] is listed as “A (50-100)”.

With `CCOCc1ccc(C)cc1N1C(=O)CS/C1=N\C(=O)Nc1ccc(-c2ncn(-c3cccc(OC(F)(F)F)c3)n2)cc1F` [Compound J711], the BAW rating entry in assay [1] was “A (50-100)”. In addition, the CL rating entry in assay [2] was “A (50-100)”.
